These results are taken from patent US20080096861A1, “Chemical Compounds” (SMITHKLINE BEECHAM CORPORATION, priority 2004, published 2008).

One series deals with T-tropic HIV. Conditions: patients dual tropic or with only T-tropic virus; cited from earlier work.
In another series the test system is HIV-1 IIIB. As to the kind of experiment: HOS HIV-1 infectivity assay. Format: cell-based. The gist of the method:
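Luminescence served as read-out: Steady-Glo luciferase for infected wells, CellTiter-Glo for virus-free wells assessing cytotoxicity. Reporter HOS cells (hCXCR4/hCCR5/hCD4, LTR-luciferase) were preincubated with compound for 1 h, infected with PBL-propagated virus, and cultured 96 h at 37 °C.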

The target of another series is T1, CXCR4 receptor (Homo sapiens, UniProt P61073).
T1 construct: expressed in transfected cells; host or cells: HEK-293 cells (stably expressing human macrophage scavenger receptor) transduced with human CXCR4 BacMam and Gqi5 BacMam
The series can be described thus: Functional FLIPR assay (block of SDF-1 alpha induced [Ca2+]i change). Format: cell-based. Conditions: HEK-293 cells, human CXCR4 BacMam and Gqi5 BacMam, read-out: Functional assay (pIC50) (converted). As for the experimental part:
Human embryonic kidney (HEK-293) cells were maintained and harvested as described above. Cells were plated in 96-well, black clear bottom, poly-lysine coated plates at a concentration of 40,000 cells per well in a final volume of 100 ul containing human CXCR4BacMam (MOI=25) and Gqi5 BacMam (MOI=12.5). The cells were incubated at 37° C., 5% CO2, 95% humidity for 24 h to allow for protein expression.
After the required incubation time the cells were washed once with 50 ul of fresh serum-free DMEM/F12 media containing probenicid. 50 ul of dye solution was then added to the cells (Calcium Plus Assay Kit Dye; Molecular Devices) was dissolved in 200 ml of the above probenicid/BSA containing media and incubated for 1 h. Cell plates were transferred to a Fluorometric Imaging Plate Reader (FLIPR). Upon addition the effect of the compounds on the change in [Ca^2+]i was examined to determine if the compounds were agonists or antagonists (ability to block SDF-1 alpha activity) at the CXCR4 receptor. IC50 values are determined and pKb values are calculated using the Leff and Dougall equation: KB═IC50/((2+([agonist]/EC50̂b)̂1/b−1) Where IC50 is that defined by the antagonist concentration-response curve [agonist)] is the EC80 concentration of agonist used EC50 is that defined by the agonist concentration-response curve b is the slope of the agonist concentration-response curve.

Series [1] in a line: Compound cytotoxicity in HOS cells in the absence of virus (CellTiter-Glo). The format is cell-based. To be noted: human, no virus, read-out: Cytotox (pIC50) (converted). As for the experimental part:
Compounds were profiled against two HIV-1 viruses, the M-tropic (CCR5 utilizing) Ba-L strain and the T-tropic (CXCR4 utilizing) IIIB strain. Both viruses were propagated in human peripheral blood lymphocytes. Compounds were tested for there ability to block infection of the HOS cell line (expressing hCXCR4/hCCR5/hCD4/pHIV-LTR-luciferase) by either HIV-1 Ba-L or HIV-1 IIIB. Compound cytotoxicity was also examined in the absence of virus addition.
HOS cells (expressing hCXCR4/hCCR5/hCD4/pHIV-LTR-luciferase) were harvested and diluted in Dulbeccos modified Eagles media supplemented with 2% FCS and non-essential amino acid to a concentration of 60,000 cells/ml. The cells were plated into 96-well plates (100 ul per well) and the plates were placed in a tissue culture incubator (37° C.; 5% CO2/95% air) for a period of 24 h.
Subsequently, 50 ul of the desired drug solution (4 times the final concentration) was added to each well and the plates were returned to the tissue culture incubator (37° C.; 5% CO2/95% air) for 1 h. Following this incubation 50 ul of diluted virus was added to each well (approximately 2 million RLU per well of virus). The plates were returned to the tissue culture incubator (37° C.; 5% CO2/95% air) and were incubated for a further 96 h.
Following this incubation the endpoint for the virally infected cultures was quantified following addition of Steady-Glo Luciferase assay system reagent (Promega, Madison, Wis.). Cell viability or non-infected cultures was measured using a CellTiter-Glo luminescent cell viability assay system (Promega, Madison, Wis.). All luminescent readouts are performed on a Topcount luminescence detector (Packard, Meridien, Conn.).
For orientation: In ATP-based viability assays light output follows the ATP content of the culture.

For series [2], the system named is HIV-1 gp160 (HXB2 strain) mediated cell/cell fusion. The series can be described thus: Cell/cell fusion assay (HOS hCXCR4/hCCR5/hCD4/pHIV-LTR-luciferase cells with HEK-293 cells expressing HIV-1 tat, rev, gp160), luciferase readout. The format is cell-based. Conditions: Homo sapiens, HEK293, 24 h, read-out: Fusion assay (pIC50) (converted). The text has this: The complete coding sequences of HIV-1 tat (GenBank Accession No. X07861) and rev (GenBank Accession No. M34378) were cloned into pcDNA3.1 expression vectors containing G418 and hygromycin resistance genes, respectively. The complete coding sequence of the HIV-1 (HXB2 strain) gp160 envelope gene (nucleotide bases 6225-8795 of GenBank Accession No. K03455) was cloned into plasmid pCRII-TOPO. The three HIV genes were additionally inserted into the baculovirus shuttle vector, pFastBacMam1, under the transcriptional control of the CMV promoter. A construction of the pHIV-1 LTR containing mutated NFkB sequences linked to the luciferase reporter gene was prepared by digesting pcDNA3.1, containing the G418 resistance gene, with Nru I and Bam HI to remove the CMV promoter. LTR-luc was then cloned into the Nru I/Bam HI sites of the plasmid vector. Plasmid preparations were performed after the plasmids were amplified in Escherichia coli strain DH5-alpha. The fidelity of the inserted sequences was confirmed by double-strand nucleotide sequencing using an ABI Prism Model 377 automated sequencer.
Recombinant BacMam baculoviruses were constructed from pFastBacMam shuttle plasmids by using the bacterial cell-based Bac-to-Bac system. Viruses were propagated in Sf9 (Spodoptera frugiperda) cells cultured in Hink's TNM-FH Insect media supplemented with 10% (v/v) fetal bovine serum and 0.1% (v/v) pluronic F-68 according to established protocols.
Human osteosarcoma (HOS) cells that naturally express human CXCR4 were transfected with human CCR5, human CD4 and the pHIV-LTR-luciferase plasmid using FuGENE 6 transfection reagent. Single cells were isolated and grown under selection condition in order to generate a stable HOS (hCXCR4/hCCR5/hCD4/pHIV-LTR-luciferase) clonal cell line. The cells were maintained in Dulbeccos modified Eagles media supplemented with 10% fetal calf serum (FCS), G418 (400 ug/ml), puromycin (1 ug/ml), mycophenolic acid (40 ug/ml), xanthine (250 ug/ml) and hypoxanthine (13.5 ug/ml) to maintain a selection pressure for cells expressing the LTR-luciferase, hCCR5 and hCD4, respectively. Human embryonic kidney (HEK-293) cells stably transfected to express the human macrophage scavenging receptor (Class A, type 1; GenBank Accession No. D90187), were maintained in DMEM/F-12 media (1:1) supplemented with 10% FCS and 1.5 ug/ml puromycin. The expression of this receptor by the HEK-293 cells enhances their ability to stick to tissue culture treated plasticware.
HEK-293 cells were harvested using enzyme-free cell dissociation buffer. The cells were resuspended in DMEM/F-12 media supplemented with 10% FCS and 1.5 ug/ml and counted. Tranductions were performed by direct addition of BacMam baculovirus containing insect cell media to cells. The cells were simultaneously transduced with BacMam baculovirus expressing HIV-1 tat, HIV-1 rev and HIV-1 gp160 (from the HXB2 HIV strain). Routinely an MOI of 10 of each virus was added to the media containing the cells. 2 mM butyric acid was also added to the cells at this stage to increase protein expression in transduced cells. The cells were subsequently mixed and seeded into a flask at 30 million cells per T225. The cells were incubated at 37° C., 5% CO2, 95% humidity for 24 h to allow for protein expression.
HEK and HOS cells were harvested in DMEM/F-12 media containing 2% FCS and DMEM media containing 2% FCS, respectively, with no selection agents added. Compounds were plated as 1 ul spots in 100% DMSO on a 96-well CulturPlate plates. HOS cells (50 ul) were added first to the wells, followed immediately by the HEK cells (50 ul). The final concentration of each cell type was 20,000 cells per well. Following these additions, the cells were returned to a tissue culture incubator (37° C.; 5% CO2/95% air) for an additional 24 h.
Following the 24 h incubation, total cellular luciferase activity was measured using the LucLite Plus assay kit (Packard, Meridien, Conn.). […]

Where [3] appears, read: Human immunodeficiency virus 1, IIIB, as determined by the infectivity assay, strain not stated in Table 2, read-out: Activity Level.
Setting [4] is: Human immunodeficiency virus 1, T-tropic (CXCR4 utilizing) IIIB strain, HOS cells, 96 h, read-out: HOS (3B).

Each structure is given as a SMILES string. Read-outs that look alike come from different tables or passages of the source.

T1 sequence (P61073 whole entry): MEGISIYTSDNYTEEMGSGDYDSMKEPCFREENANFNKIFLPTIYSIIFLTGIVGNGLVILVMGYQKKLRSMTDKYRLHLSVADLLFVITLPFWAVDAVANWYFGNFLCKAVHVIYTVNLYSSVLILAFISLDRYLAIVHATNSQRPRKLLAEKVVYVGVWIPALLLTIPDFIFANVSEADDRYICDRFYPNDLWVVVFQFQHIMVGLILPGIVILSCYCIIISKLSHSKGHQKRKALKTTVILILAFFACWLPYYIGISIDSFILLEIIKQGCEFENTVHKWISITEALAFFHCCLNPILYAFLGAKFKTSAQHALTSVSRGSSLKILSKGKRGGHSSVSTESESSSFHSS

With `c1cc(CN2CCCNCCNCCCNCC2)ccc1CN1CCCNCCNCCCNCC1` [AMD-3100], the “T-tropic HIV viral load” value with T-tropic HIV is “significantly reduce T-tropic HIV viral load”.
Consider `NCCCn1c(CNC2CCCc3cccnc32)nc2ccccc21` (stereo not drawn) [Example 19, N-{[1-(3-Aminopropyl)-1H-benzimidazol-2-yl]methyl}-5,6,7,8-tetrahydro-8-quinolinamine], for which the IC50 in the series with HIV-1 IIIB (setting [3]) was less than 0.1 µM; in the series with HIV-1 IIIB (setting [4]), 0.09 µM; on CXCR4 receptor, 0.234 µM; in series [2] it was 0.513 µM. The IC50 at 96 h in series [1] is more than 100 µM.
Regarding `CCN(Cc1nc2ccccc2n1CCCN)C1CCCc2cccnc21` (stereo not drawn) [Example 20, N-{[1-(3-Aminopropyl)-1H-benzimidazol-2-yl]methyl}-N-ethyl-5,6,7,8-tetrahydro-8-quinolinamine], the IC50 is less than 0.1 µM with HIV-1 IIIB (setting [3]), 0.021 µM in the series with HIV-1 IIIB (setting [4]), 0.0282 µM on CXCR4 receptor and 0.0562 µM in series [2]. Further, the IC50 at 96 h in series [1] was more than 100 µM.
For `NCCCn1c(CN(Cc2ccccc2)C2CCCc3cccnc32)nc2ccccc21` (stereo not drawn) [Example 21, N-{[1-(3-Aminopropyl)-1H-benzimidazol-2-yl]methyl}-N-(phenylmethyl)-5,6,7,8-tetrahydro-8-quinolinamine], in that order: 0.5 to 10 µM, 0.595 µM, 0.288 µM, 1.32 µM and more than 100 µM.
For `CC(C)CCN(Cc1nc2ccccc2n1CCCN)C1CCCc2cccnc21` (stereo not drawn) [Example 22, N-{[1-(3-Aminopropyl)-1H-benzimidazol-2-yl]methyl}-N-(3-methylbutyl)-5,6,7,8-tetrahydro-8-quinolinamine], in that order: 0.1 to 0.5 µM, 0.113 µM, 0.0562 µM, 0.158 µM and more than 100 µM.
As to `CN1CCCCC1CCn1c(CN(C)C2CCCc3cccnc32)nc2ccccc21` (stereo not drawn) [Example 23e, N-Methyl-N-({1-[2-(1-methyl-2-piperidinyl)ethyl]-1H-benzimidazol-2-yl}methyl)-5,6,7,8-tetrahydro-8-quinolinamine], the IC50 with HIV-1 IIIB (setting [3]) is less than 0.1 µM; with HIV-1 IIIB (setting [4]), 0.033 µM; on CXCR4 receptor it was 0.0174 µM; in series [2], 0.038 µM. The IC50 at 96 h in series [1] was more than 100 µM.
For `CN(C)C/C=C\Cn1c(CN(C)C2CCCc3cccnc32)nc2ccccc21` (stereo not drawn) [Example 24, N-({1-[(2Z)-4-(Dimethylamino)-2-buten-1-yl]-1H-benzimidazol-2-yl}methyl)-N-methyl-5,6,7,8-tetrahydro-8-quinolinamine] the same measures were less than 0.1 µM, 0.025 µM, 0.0155 µM, 0.0204 µM and more than 100 µM.
Take `CN1CCOC(Cn2c(CN(C)C3CCCc4cccnc43)nc3ccccc32)C1` (stereo not drawn) [Example 25, N-Methyl-N-({1-[(4-methyl-2-morpholinyl)methyl]-1H-benzimidazol-2-yl}methyl)-5,6,7,8-tetrahydro-8-quinolinamine]: the IC50 is 0.1 to 0.5 µM in the series with HIV-1 IIIB (setting [3]), 0.185 µM in the series with HIV-1 IIIB (setting [4]), 0.0295 µM at CXCR4 receptor and 0.038 µM in series [2]. The IC50 at 96 h in series [1] is more than 100 µM.
